Experimental data as given in patent publication US10647692B2, “Heterocycle-substituted bicyclic azole pesticides” (FMC Corporation, priority 2015, dated 2020).

How the values were obtained:
Format in all cases: in vivo
[1] = tested on: cotton melon aphid (Aphis gossypii (Glover)); assay: Test B: control of cotton melon aphid, foliar spray on pre-infested cotton plant; settings: 144 h, assessed after 6 days; for mortality at 50 ppm: sprayed at 50 ppm; for mortality at 250 ppm: sprayed at 250 ppm
Method: (§1) Test compounds were formulated using a solution containing 10% acetone, 90% water and 300 ppm X-77® Spreader Lo-Foam Formula non-ionic surfactant containing alkylarylpolyoxyethylene, free fatty acids, glycols and isopropanol (Loveland Industries, Inc. Greeley, Colo., USA). The formulated compounds were applied in 1 mL of liquid through a SUJ2 atomizer nozzle with ⅛ JJ custom body (Spraying Systems Co. Wheaton, Ill., USA) positioned 1.27 cm (0.5 inches) above the top of each test unit. Test compounds were sprayed at the rates indicated, and each test was replicated three times.
For evaluating control of cotton melon aphid (Aphis gossypii (Glover)) through contact and/or systemic means, the test unit consisted of a small open container with a 6-7-day-old cotton plant inside. This was pre-infested with 30-40 insects on a piece of leaf according to the cut-leaf method, and the soil of the test unit was covered with a layer of sand.
Test compounds were formulated and sprayed at 250 and/or 50 ppm. After spraying, the test units were maintained in a growth chamber for 6 days at 19° C. and 70% relative humidity. Each test unit was then visually assessed for insect mortality.

[2] = tested on: green peach aphid (Myzus persicae (Sulzer)); assay: Test A: control of green peach aphid, foliar spray on pre-infested radish plant; settings: 144 h, assessed after 6 days; for mortality at 50 ppm: sprayed at 50 ppm; for mortality at 250 ppm: sprayed at 250 ppm
Method: as §1
For evaluating control of green peach aphid (Myzus persicae (Sulzer)) through contact and/or systemic means, the test unit consisted of a small open container with a 12-15-day-old radish plant inside. This was pre-infested by placing on a leaf of the test plant 30-40 aphids on a piece of leaf excised from a culture plant (cut-leaf method). The aphids moved onto the test plant as the leaf piece desiccated. After pre-infestation, the soil of the test unit was covered with a layer of sand.
Test compounds were formulated and sprayed at 250 and/or 50 ppm. After spraying of the formulated test compound, each test unit was allowed to dry for 1 hour and then a black, screened cap was placed on top. The test units were held for 6 days in a growth chamber at 19-21° C. and 50-70% relative humidity. Each test unit was then visually assessed for insect mortality.

[3] = tested on: Western Flower Thrips (Frankliniella occidentalis); assay: Test D: control of Western Flower Thrips, sprayed Soleil bean plant; settings: held for 7 days
Method: as §1
For evaluating control of Western Flower Thrips (Frankliniella occidentalis) through contact and/or systemic means, the test unit consisted of a small open container with a 5-7-day-old Soleil bean plant inside.
Test compounds were formulated and sprayed at 250 and/or 50 ppm. After spraying, the test units were allowed to dry for 1 hour, and then 22-27 adult thrips were added to the unit. A black, screened cap was placed on the top of each test unit, and the test units were held for 7 days at 25° C. and 45-55% relative humidity.

[4] = tested on: sweetpotato whitefly (Bemisia tabaci (Gennadius)); assay: Test E: control of sweetpotato whitefly, sprayed cotton plant infested with eggs; settings: 312 h, assessed after 13 days; for mortality at 250 ppm: sprayed at 250 ppm
Method: as §1
For evaluating control of the sweetpotato whitefly (Bemisia tabaci (Gennadius)) through contact and/or systemic means, the test unit consisted of a small open container with a 12-14-day-old cotton plant inside. Prior to the spray application, both cotyledons were removed from the plant, leaving one true leaf for the assay. Adult whiteflies were allowed to lay eggs on the plant and then were removed from the test unit. Cotton plants infested with at least 15 eggs were submitted to the test for spraying.
Test compounds were formulated and sprayed at 250 and/or 50 ppm. After spraying, the test units were allowed to dry for 1 hour. The cylinders were then removed, and the units were taken to a growth chamber and held for 13 days at 28° C. and 50-70% relative humidity. Each test unit was then visually assessed for insect mortality.

[5] = tested on: potato leafhopper (Empoasca fabae); assay: Test C: control of potato leafhopper, sprayed Soleil bean plant, post-infested; settings: assessed after 6 days
Method: as §1
For evaluating control of potato leafhopper (Empoasca fabae) through contact and/or systemic means, the test unit consisted of a small open container with a 5-6-day-old Soleil bean plant (primary leaves emerged) inside. White sand was added to the top of the soil and one of the primary leaves was excised prior to application.
Test compounds were formulated and sprayed at 250 ppm and/or 50 ppm. After spraying, the test units were allowed to dry for 1 h before they were post-infested with 5 potato leafhoppers (18-21-day-old adults). A black, screened cap was placed on the top of each test unit, and the test units were held for 6 days in a growth chamber at 24° C. and 70% relative humidity. Each test unit was then visually assessed for insect mortality.

| SMILES | mortality at 50 ppm [1] [%] | mortality at 50 ppm [2] [%] | mortality at 250 ppm [1] [%] | mortality at 250 ppm [2] [%] | control efficacy (plant damage and/or mortality) ([3]; sprayed at 250 ppm) | also measured |
| --- | --- | --- | --- | --- | --- | --- |
| CSCCC(=O)c1cccc2nn(-c3cccnc3)cc12 [Compound 2, 3-(methylthio)-1-[2-(3-pyridinyl)-2H-indazol-4-yl]-1-propanone] | ≥ 80 | ≥ 80 | – | – | – | control efficacy (plant damage and/or mortality) ([3]; sprayed at 50 ppm): 40% or less plant damage and/or 100% mortality |
| CSCCC(=O)c1ccc2nn(-c3cccnc3)cc2c1 [Compound 31] | – | – | – | – | – | control efficacy (plant damage and/or mortality) ([3]; sprayed at 50 ppm): 40% or less plant damage and/or 100% mortality |
| COCNCCC(=O)c1ccc2nn(-c3cccnc3)cc2c1 [Compound 32, 3-(methoxymethylamino)-1-[2-(3-pyridinyl)-2H-indazol-5-yl]-1-propanone] | – | ≥ 80 | ≥ 80 | ≥ 80 | 40% or less plant damage and/or 100% mortality | – |
| FC(F)(F)c1ccc(Oc2ccc3nn(-c4cccnc4)cc3c2)cc1 [Compound 35] | – | – | – | – | 40% or less plant damage and/or 100% mortality | – |
| CC(C)NC(=O)Cc1ccc2nn(-c3cccnc3)cc2c1 [Compound 38, N-(1-methylethyl)-2-(3-pyridinyl)-2H-indazole-5-acetamide] | ≥ 80 | ≥ 80 | ≥ 80 | ≥ 80 | 40% or less plant damage and/or 100% mortality | – |
| O=C(Cc1ccc2nn(-c3cccnc3)cc2c1)NCC(F)(F)F [Compound 41] | – | – | – | – | 40% or less plant damage and/or 100% mortality | – |
| c1cnc(Oc2ccc3nn(-c4cccnc4)cc3c2)nc1 [Compound 42, 2-(3-pyridinyl)-5-(2-pyrimidinyloxy)-2H-indazole] | ≥ 80 | ≥ 80 | ≥ 80 | ≥ 80 | – | – |
| O=C(NCC(F)(F)F)C(=O)c1ccc2nn(-c3cccnc3)cc2c1 [Compound 48, α-oxo-2-(3-pyridinyl)-N-(2,2,2-trifluoroethyl)-2H-indazole-5-acetamide] | – | ≥ 80 | ≥ 80 | ≥ 80 | – | – |
| CC(C)COc1ccc2nn(-c3cccnc3)cc2c1 [Compound 54, 5-(2-methylpropoxy)-2-(3-pyridinyl)-2H-indazole] | ≥ 80 | ≥ 80 | ≥ 80 | ≥ 80 | – | mortality at 50 ppm ([4]; sprayed at 50 ppm): ≥ 50%; mortality at 250 ppm [4]: ≥ 50% |
| CC(C)NC(=O)Cc1ccc2nn(-c3cncc(F)c3)cc2c1 [Compound 56] | – | – | – | – | – | control efficacy (mortality) ([5]; sprayed at 50 ppm): ≥ 80%; control efficacy (mortality) ([5]; sprayed at 250 ppm): ≥ 80% |
| CC(C(=O)NCc1ncccn1)c1ccc2nn(-c3cccnc3)cc2c1 (stereo not drawn) [Compound 59, α-methyl-2-(3-pyridinyl)-N-(2-pyrimidinylmethyl)-2H-indazole-5-acetamide] | ≥ 80 | ≥ 80 | ≥ 80 | ≥ 80 | – | mortality at 250 ppm [4]: ≥ 50% |
| CC(C(=O)NC(C)(C)C#N)c1ccc2nn(-c3cccnc3)cc2c1 (stereo not drawn) [Compound 85, N-(1-cyano-1-methylethyl)-α-methyl-2-(3-pyridinyl)-2H-indazole-5-acetamide] | ≥ 80 | ≥ 80 | ≥ 80 | ≥ 80 | – | mortality at 250 ppm [4]: ≥ 50% |
